Laboratory results: patent publication US10004701B2, “Methods and compositions for treating infection” (UNIVERSITY OF ROCHESTER, priority 2012, dated 2018)
Structures can show the parent of a compound that is named as a salt. Where two headings read alike, the source gives them in different places.

What was measured:
Assay in all cases: AK assay 384-well format, Prestwick library screening
[1] = system: E. cloacae; assay type: cell-based, Enterobacter cloacae; conditions: 50 μM final drug concentration; for fold induction at 50 µM: Enterobacter cloacae, 3 h
[2] = system: E. coli; assay type: cell-based, Escherichia coli; conditions: 50 μM final drug concentration; for fold induction at 50 µM: Escherichia coli, 3 h
[3] = system: A. baumannii strain 98-37-09; assay type: cell-based, Acinetobacter baumannii; conditions: 50 μM final drug concentration; for fold induction at 50 µM: Acinetobacter baumannii, 983709, 3 h
[4] = system: E. faecium; assay type: cell-based, Enterococcus faecium; conditions: 50 μM final drug concentration; for fold induction at 50 µM: Enterococcus faecium, 3 h
[5] = system: S. aureus strain USA300-0114; assay type: cell-based, Staphylococcus aureus; conditions: 50 μM final drug concentration; for fold induction at 50 µM: Staphylococcus aureus, USA300, 3 h
[6] = system: K. pneumoniae; assay type: cell-based, Klebsiella pneumoniae; conditions: 50 μM final drug concentration; for fold induction at 50 µM: Klebsiella pneumoniae, 3 h
[7] = system: P. aeruginosa; assay type: cell-based, Pseudomonas aeruginosa; conditions: 50 μM final drug concentration; for fold induction at 50 µM: Pseudomonas aeruginosa, 3 h
[8] = planktonic E. cloacae, positive cutoff 3-fold increase, read-out: AK-based Prestwick library screening result, E. cloacae (fold increase in extracellular AK activity)
[9] = planktonic E. coli, positive cutoff 3-fold increase, read-out: AK-based Prestwick library screening result, E. coli (fold increase in extracellular AK activity)
[10] = planktonic A. baumannii, positive cutoff 3-fold increase, read-out: AK-based Prestwick library screening result, A. baumannii (fold increase in extracellular AK activity)
[11] = planktonic E. faecium, positive cutoff 3-fold increase, read-out: AK-based Prestwick library screening result, E. faecium (fold increase in extracellular AK activity)
[12] = planktonic S. aureus, positive cutoff 3-fold increase, read-out: AK-based Prestwick library screening result, S. aureus (fold increase in extracellular AK activity)
[13] = planktonic K. pneumoniae, positive cutoff 3-fold increase, read-out: AK-based Prestwick library screening result, K. pneumoniae (fold increase in extracellular AK activity)
[14] = planktonic P. aeruginosa, positive cutoff 3-fold increase, read-out: AK-based Prestwick library screening result, P. aeruginosa (fold increase in extracellular AK activity)
[15] = planktonic E. cloacae, cutoff for positive-scoring molecules 3-fold increase, read-out: AK-based Prestwick Library Screening Results, E. cloacae (increase in extracellular AK activity)
[16] = planktonic E. coli, cutoff for positive-scoring molecules 3-fold increase, read-out: AK-based Prestwick Library Screening Results, E. coli (increase in extracellular AK activity)
[17] = planktonic A. baumannii, cutoff for positive-scoring molecules 3-fold increase, read-out: AK-based Prestwick Library Screening Results, A. baumannii (increase in extracellular AK activity)
[18] = planktonic E. faecium, cutoff for positive-scoring molecules 3-fold increase, read-out: AK-based Prestwick Library Screening Results, E. faecium (increase in extracellular AK activity)
[19] = planktonic S. aureus, cutoff for positive-scoring molecules 3-fold increase, read-out: AK-based Prestwick Library Screening Results, S. aureus (increase in extracellular AK activity)
[20] = planktonic K. pneumoniae, cutoff for positive-scoring molecules 3-fold increase, read-out: AK-based Prestwick Library Screening Results, K. pneumoniae (increase in extracellular AK activity)
[21] = planktonic P. aeruginosa, cutoff for positive-scoring molecules 3-fold increase, read-out: AK-based Prestwick Library Screening Results, P. aeruginosa (increase in extracellular AK activity)

## NCCc1cc[nH]n1 [Betazole hydrochloride]
[1]; 384-well format, cutoff for positive-scoring molecules 3-fold increase, read-out: AK-based Prestwick Library Screening Results, E. cloacae (increase in extracellular AK activity)
  fold induction at 50 µM: 1.4
[2]; 384-well format, cutoff for positive-scoring molecules 3-fold increase, read-out: AK-based Prestwick Library Screening Results, E. coli (increase in extracellular AK activity)
  fold induction at 50 µM: 1.3
[3]; 384-well format, cutoff for positive-scoring molecules 3-fold increase, read-out: AK-based Prestwick Library Screening Results, A. baumannii (increase in extracellular AK activity)
  fold induction at 50 µM: 1.2
[4]; 384-well format, cutoff for positive-scoring molecules 3-fold increase, read-out: AK-based Prestwick Library Screening Results, E. faecium (increase in extracellular AK activity)
  fold induction at 50 µM: 1
[5]; 384-well format, cutoff for positive-scoring molecules 3-fold increase, read-out: AK-based Prestwick Library Screening Results, S. aureus (increase in extracellular AK activity)
  fold induction at 50 µM: 1.2
[6]; 384-well format, cutoff for positive-scoring molecules 3-fold increase, read-out: AK-based Prestwick Library Screening Results, K. pneumoniae (increase in extracellular AK activity)
  fold induction at 50 µM: 0.9
[7]; 384-well format, cutoff for positive-scoring molecules 3-fold increase, read-out: AK-based Prestwick Library Screening Results, P. aeruginosa (increase in extracellular AK activity)
  fold induction at 50 µM: 1

## CC(C[N+](C)(C)C)OC(N)=O (stereo not drawn) [Bethanechol chloride]
[1]; [8]
  fold induction at 50 µM: 0.9
[2]; [9]
  fold induction at 50 µM: 1
[3]; [10]
  fold induction at 50 µM: 0.8
[4]; [11]
  fold induction at 50 µM: 0.9
[5]; [12]
  fold induction at 50 µM: 0.7
[6]; [13]
  fold induction at 50 µM: 0.7
[7]; [14]
  fold induction at 50 µM: 0.7

## C[N+]1(C)C[C@H](O)C[C@H]1C(=O)[O-] [Betonicine]
[1]; planktonic, cutoff for positive-scoring molecules 3-fold increase, read-out: AK-based Prestwick Library Screening Results, E. cloacae (fold increase in extracellular AK activity)
  fold induction at 50 µM: 0.4
[2]; planktonic, cutoff for positive-scoring molecules 3-fold increase, read-out: AK-based Prestwick Library Screening Results, E. coli (fold increase in extracellular AK activity)
  fold induction at 50 µM: 0.4
[3]; planktonic, cutoff for positive-scoring molecules 3-fold increase, read-out: AK-based Prestwick Library Screening Results, A. baumannii (fold increase in extracellular AK activity)
  fold induction at 50 µM: 0.4
[4]; planktonic, cutoff for positive-scoring molecules 3-fold increase, read-out: AK-based Prestwick Library Screening Results, E. faecium (fold increase in extracellular AK activity)
  fold induction at 50 µM: 0.9
[5]; planktonic, cutoff for positive-scoring molecules 3-fold increase, read-out: AK-based Prestwick Library Screening Results, S. aureus (fold increase in extracellular AK activity)
  fold induction at 50 µM: 0.4
[6]; planktonic, cutoff for positive-scoring molecules 3-fold increase, read-out: AK-based Prestwick Library Screening Results, K. pneumoniae (fold increase in extracellular AK activity)
  fold induction at 50 µM: 0.6
[7]; planktonic, cutoff for positive-scoring molecules 3-fold increase, read-out: AK-based Prestwick Library Screening Results, P. aeruginosa (fold increase in extracellular AK activity)
  fold induction at 50 µM: 0.4

## C=C(C)[C@@H]1CC[C@]2(CO)CC[C@]3(C)[C@H](CC[C@@H]4[C@@]5(C)CC[C@H](O)C(C)(C)[C@@H]5CC[C@]43C)[C@@H]12 [Betulin]
[1]; [8]
  fold induction at 50 µM: 1.3
[2]; [9]
  fold induction at 50 µM: 0.8
[3]; [10]
  fold induction at 50 µM: 0.8
[4]; [11]
  fold induction at 50 µM: 0.9
[5]; [12]
  fold induction at 50 µM: 0.3
[6]; [13]
  fold induction at 50 µM: 0.7
[7]; [14]
  fold induction at 50 µM: 0.7

## C=C(C)[C@@H]1CC[C@]2(C(=O)O)CC[C@]3(C)[C@H](CC[C@@H]4[C@@]5(C)CC[C@H](O)C(C)(C)[C@@H]5CC[C@]43C)[C@@H]12 [Betulinic acid]
[1]; [15]
  fold induction at 50 µM: 0.7
[2]; [16]
  fold induction at 50 µM: 0.6
[3]; [17]
  fold induction at 50 µM: 0.6
[4]; [18]
  fold induction at 50 µM: 0.9
[5]; [19]
  fold induction at 50 µM: 0.1
[6]; [20]
  fold induction at 50 µM: 0.5
[7]; [21]
  fold induction at 50 µM: 0.6

## CC(C)(Oc1ccc(CCNC(=O)c2ccc(Cl)cc2)cc1)C(=O)O [Bezafibrate]
[1]; planktonic, cutoff for positive 3-fold increase, read-out: AK-based Prestwick Library Screening Results, E. cloacae (fold increase in extracellular AK activity)
  fold induction at 50 µM: 1.5
[2]; planktonic, cutoff for positive 3-fold increase, read-out: AK-based Prestwick Library Screening Results, E. coli (fold increase in extracellular AK activity)
  fold induction at 50 µM: 0.9
[3]; planktonic, cutoff for positive 3-fold increase, read-out: AK-based Prestwick Library Screening Results, A. baumannii (fold increase in extracellular AK activity)
  fold induction at 50 µM: 0.8
[4]; planktonic, cutoff for positive 3-fold increase, read-out: AK-based Prestwick Library Screening Results, E. faecium (fold increase in extracellular AK activity)
  fold induction at 50 µM: 0.8
[5]; planktonic, cutoff for positive 3-fold increase, read-out: AK-based Prestwick Library Screening Results, S. aureus (fold increase in extracellular AK activity)
  fold induction at 50 µM: 1.1
[6]; planktonic, cutoff for positive 3-fold increase, read-out: AK-based Prestwick Library Screening Results, K. pneumoniae (fold increase in extracellular AK activity)
  fold induction at 50 µM: 0.7
[7]; planktonic, cutoff for positive 3-fold increase, read-out: AK-based Prestwick Library Screening Results, P. aeruginosa (fold increase in extracellular AK activity)
  fold induction at 50 µM: 1

## CN1CCc2cc3c(cc2[C@H]1[C@@H]1OC(=O)c2c1ccc1c2OCO1)OCO3 [Bicuculline (+)]
[1]; planktonic E. cloacae, […]
  AK-based Prestwick Library Screening Results, E. cloacae (increase in extracellular AK activity): 0.9
[2]; planktonic E. coli, […]
  AK-based Prestwick Library Screening Results, E. coli (increase in extracellular AK activity): 0.8
[3]; planktonic A. baumannii, […]
  AK-based Prestwick Library Screening Results, A. baumannii (increase in extracellular AK activity): 0.8
[4]; planktonic E. faecium, […]
  AK-based Prestwick Library Screening Results, E. faecium (increase in extracellular AK activity): 0.9
[5]; planktonic S. aureus, […]
  AK-based Prestwick Library Screening Results, S. aureus (increase in extracellular AK activity): 0.6
[6]; planktonic K. pneumoniae, […]
  AK-based Prestwick Library Screening Results, K. pneumoniae (increase in extracellular AK activity): 0.8
[7]; planktonic P. aeruginosa, […]
  AK-based Prestwick Library Screening Results, P. aeruginosa (increase in extracellular AK activity): 0.9

## OC(CCN1CCCCC1)(c1ccccc1)C1CC2C=CC1C2 (stereo not drawn) [Biperiden hydrochloride]
[1]; [15]
  fold induction at 50 µM: 0.9
[2]; [16]
  fold induction at 50 µM: 1
[3]; [17]
  fold induction at 50 µM: 0.8
[4]; [18]
  fold induction at 50 µM: 0.9
[5]; [19]
  fold induction at 50 µM: 0.6
[6]; [20]
  fold induction at 50 µM: 0.8
[7]; [21]
  fold induction at 50 µM: 0.8

## CC(=O)Oc1ccc(C(c2ccc(OC(C)=O)cc2)c2ccccn2)cc1 [Bisacodyl]
[1]; [15]
  fold induction at 50 µM: 0.9
[2]; [16]
  fold induction at 50 µM: 0.6
[3]; [17]
  fold induction at 50 µM: 0.8
[4]; [18]
  fold induction at 50 µM: 1
[5]; [19]
  fold induction at 50 µM: 0.5
[6]; [20]
  fold induction at 50 µM: 0.6
[7]; [21]
  fold induction at 50 µM: 0.6
